Format in all cases: cell-based, human
The subject of series [1] is RPE cells (ARPE-19). The series is described as follows: Annexin and propidium iodide double-staining FACS assay of RPE cells (apoptosis). How it is done:
(§1) Double-staining (annexin and propidium iodide (PI)) assay of RPE cells. RPE cells (ARPE-19, available from ATCC) were treated for one hour with the TAK1 inhibitor {5Z-7-oxozeaenol (1 μM)}, following 200 μM H2O2 for one hour or left untreated. The cells were then washed with fresh medium and after 24 hours were trypsinized, stained, and analyzed by FACS. The percentage of cells in each cell-cycle phase (G1/G0, S, and G2/M) was determined by its DNA content (FL2A).
The role of TAK1 in the inflammatory response is characterized (12, 13), but little is known about its participation in the response of RPE cells to stress. RPE cells were treated with the TAK1 inhibitor 5Z-7-oxozeaenol (1 μM) for 1 hour before further treatment with H2O2 (200 μM). […] In contrast, in cells treated with the TAK1 inhibitor prior to their treatment with H2O2 the number apoptotic cells was 24% (FIG. 1A). The number of cells in the late apoptosis section of each FACS chart (annexin and Pi, upper right panel) was similar with or without TAK1 inhibitor.
A general note: In flow cytometry, cells or beads pass a laser one at a time.

The subject of series [2] is RPE cells (ARPE-19). The series is described as follows: FACS cell-cycle phase analysis by DNA content (FL2A). The protocol: as §1
To examine the effect of TAK1 inhibition on the RPE cell cycle, RPE cells were treated with TAK1 inhibitor, with or without H2O2. The RPE cells are quiescent and mostly located at the G0/G1 stage (FIGS. 1B and 1C), however, following TAK1 inhibition the percentage of cells at the G0/G1 stage increased to 89% of the total number. […] This phenomenon was reduced upon TAK1 inhibition prior to the oxidative stress (FIGS. 1B and C). The Cell cycle arrest at G0/G1 upon TAK1-inhibition was further supported by the reduction in proliferation of RPE cells observed in the presence of the TAK1 inhibitor (FIG. 1D).

For series [3], the system named is ARPE-19 cells. Briefly: XTT cell viability / proliferation assay. How it is done: Cell viability assays ARPE-19 cells were seeded in 96-well plates (5000 cells/well) in full medium and were pretreated with the TAK1 inhibitor 5Z-7-oxozeaenol (1 μM) or left untreated for 1 hour. Their viability was then assayed by the XTT assay (cell proliferation kit cat #20-300-1000; Beit Haemek, Israel).
(Tetrazolium dyes change colour on reduction, which living cells bring about.)

Series [4] concerns RPE cells. Briefly: SA-β-gal staining (senescence marker).
The test system of series [5] is p53, phospho-p38. Briefly: Western blot of p53 and phospho-p38 in RPE cells under oxidative stress. The protocol:
Western blot analysis was performed by standard protocols (11), p53, p38, phospho-p38, GADPH, and TAK1; antibodies were obtained from Enco, Israel.
The p53 protein is known to play a critical role in cell-cycle regulation, DNA repair, and programmed cell death (14, 15). In view of this knowledge, and given the above-described observation that TAK1 inhibition reduced apoptosis, the expression of p53 in RPE cells was examined.

In series [6] the test system is RPE cells. The series is described as follows: Conditioned media (SASP) applied on fresh RPE cells, morphology. How it is done: FIG. 5 presents photographs showing that TAK1 inhibition contributes to the SASP of the RPE cells, causing hypertrophy and dysfunction. RPE cells were grown with the TAK1 inhibitor and/or H2O2 ([…]) or without treatment. After 2 weeks, conditioned media from the differently treated cells were centrifuge and the supernatants was employed on new freshly cells. Representative photographs of fresh RPE cells treated for 72 hours with the indicated conditioned media are shown. Scale bar=50 μm.
The most significant effect of senescence, is the acquisition of a senescence-associated secretory phenotype (SASP). SASP can convert senescent cells to proinflammatory cells that promote the secretion of chemokines and cytokines that can affect the microenvironment, including in the human retina (16, 17). To examine the role of TAK1 in this process, RPE cells were treated with TAK1 inhibitor or with H2O2, alone or in combination. After 2 weeks, the media was collected from the three separate treatments, centrifuged and the supernatants (conditioned media) were applied on fresh RPE cells for 72 hours.

The subject of series [7] is RPE cells. Briefly: RPE cell size quantification (hypertrophy). To be noted: oxidative stress with TAK-1 inhibition; N=40 cells. How it is done:
N=40 cells for each treatment. One of the hallmarks of RPE senescence is cellular hypertrophy. RPE cell size is approximately […]; but upon oxidative stress or genetic mutation RPE cells can undergo enlargement.

Series [8] has as its system RPE cells. Briefly: Anisomycin toxicity to RPE cells (cellular morphology 72 hours post-treatment). To be noted: low levels, 5 minute treatment. How it is done: To determine possible toxicity of anisomycin to RPE cells, RPE cells were treated with anisomycin at different concentration for 5 minute periods. Following treatment, the medium was replaced and fresh medium was added. 72 hours post-treatment, the cells were photographed. […] Their viability was then assayed by the XTT assay.

[9] abbreviates: medium from cells treated 2 weeks with the single agent.

The text below walks through data of patent US10682328B2, “Compositions and methods for treatment of retinal degenerative diseases” (MOR RESEARCH APPLICATIONS LTD., priority 2014, dated 2020).

As for `COc1cc(O)c2c(c1)/C=C/C[C@H](O)[C@H](O)C(=O)/C=C\C[C@H](C)OC2=O` [5Z-7-oxozeaenol], the “number of apoptotic cells as a percentage of the total number” value in series [1] (TAK1 inhibitor 1 μM 1 hour prior to H2O2 200 μM, FACS after 24 hours) is on record as 24%. The “G2/M arrest under oxidative stress” value in series [2] (TAK1 inhibition prior to H2O2 treatment) is reported as “reduced”. Also, in series [2] (TAK1 inhibitor 1 μM, without H2O2), the “percentage of cells at the G0/G1 stage” value amounted to 89%. Also, the “proliferation rate (optical density)” value in series [3] (5Z-7-oxozeaenol 1 μM pretreatment 1 hour, versus untreated cells peaking on day 4) is recorded as “slower proliferation rate”. Besides, the “number of cells expressing SA-β-gal” value in series [4] (TAK1 inhibitor alone, relative to untreated cells) is given as “dramatically increased”. Moreover, in series [4] (TAK1 inhibitor pretreatment then oxidative stress (200 μM H2O2 1 hour), days 13 and 16), the SA-β-gal expression result is listed as “strongly increased”. Moreover, the “p53 expression levels over a longer period” value in series [5] (TAK1 inhibition, days) is on record as “reduced p53 expression levels slightly more than the untreated cells”. Further, the p38 phosphorylation entry in series [5] (TAK1 inhibitor 1 μM pretreatment, oxidative stress) is “inhibition of p38 phosphorylation”. Further, the “time of p53 expression peak” value in series [5] (pretreated with TAK1 inhibitor 1 μM, oxidative stress, control peak after 60 min) was determined as 10 min. Also, the “phenotype of fresh RPE cells after 72 hours with conditioned medium” value is listed as “hypertrophic phenotype similar to that of senescent cells” in series [6] (setting [9]); “aberrant morphology similar to that of atrophic RPE cells” in series [6] (medium from cells treated with both TAK1 inhibitor and H2O2). Also, in series [7], the cell size entry is on record as “increases cell size”.
With `CC1=C(/C=C/C(C)=C/C=C/C(C)=C/c2cc(/C=C/C=C(C)/C=C/C3=C(C)CCCC3(C)C)cc[n+]2CCO)C(C)(C)CCC1` [A2E], the senescent phenotype entry in series [4] (A2E 5 μM added to cultured RPE cells) is “increases the senescent phenotype”.
`OO` [H2O2]: in series [1] (H2O2 alone (200 μM), untreated cells 1.25%), the “number of apoptotic cells as a percentage of the total number” value is 31%. Besides, in series [2] (H2O2 treatment alone), the G2/M arrest result is listed as “high levels of G2/M arrest”. Moreover, the “phenotype of fresh RPE cells after 72 hours with conditioned medium” value in series [6] (setting [9]) is “hypertrophic phenotype similar to that of senescent cells”.
With `COc1ccc(C[C@H]2NC[C@H](O)[C@H]2OC(C)=O)cc1` [anisomycin, (2R,3S,4S)-4-hydroxy-2-(4-methoxybenzyl)-pyrrolidin-3-yl acetate], the “rate of cell proliferation” value in series [3] (oxidative stress and anisomycin) is on record as “did not display reduction”. Further, the “number of SA-β-Gal positive cells” value in series [4] (H2O2 1 hour, 10 days growth, anisomycin 10 ng/ml 5 min, five more days, versus untreated cells exposed to oxidative stress) is “reduces the number of SA-β-Gal positive cells”. For the same molecule, the “toxicity to RPE cells” value in series [8] is reported as “not toxic”.
